Row | melting point [°C] | SMILES
1 | 210 to 213 | CC1(C)[C@@H](C(=O)Nc2cc(C(F)(F)F)n[nH]2)[C@@H]1c1ccc(S(N)(=O)=O)cc1 (relative stereo)
2 | 198 to 200 | COc1ccc2c(C(F)(F)F)c(CC(=O)O)c(=O)oc2c1
3 | 211 | CC(C)n1cc(-c2nc(C#N)c(N)nc2-c2ccccc2F)ccc1=O
4 | 110 to 111 | c1ccc(CCNc2cc(-n3cccn3)nc(-c3ccco3)n2)nc1
5 | 188 to 191 | Cc1nc(N2CCN(CC3CC3)C2=O)sc1C(=O)NCc1ccncn1
6 | 199 to 200 | O=C1NN=C(c2ccc(Cl)cc2)C2CC12 (stereo unspecified)
7 | 67 | C=C(C)C(=O)OCCCc1ccc(-c2ccc(-c3ccc(OC(=O)C(=C)C)cc3F)c(F)c2)cc1
8 | 162 | CCn1nc(-c2ccc(OC)cc2)c(-c2ccc(OC)c(F)c2)cc1=O
9 | 132 to 133 | CC(C)(O)c1ccc(-c2cnc3[nH]c(=O)n(CCC4CCOCC4)c3n2)cn1
10 | 245 to 246 | Cc1c(S(=O)c2cc(Cl)c(Cl)cc2Cl)cc(C(C)(C)C)c(O)c1C(=O)Nc1ccc([N+](=O)[O-])cc1Cl (stereo unspecified)
11 | 157 to 158 | CCC(CC)(CCCS(N)(=O)=O)COc1nn2ncnc2cc1C
12 | 129 to 135 | CC(C)OC(C)c1nnc(N)s1 (stereo unspecified)
13 | 214 to 216 | CCc1[nH]n(C2CCCC2)c2nc(Cc3cccn3C)nc(=O)c1-2
14 | 148 to 150 | COc1ccc2c(c1)c(Cc1cc(=O)n(-c3cccc(Cl)c3)[nH]1)c(C)n2C(=O)c1ccc(Cl)cc1
15 | 76 to 80 | CN(C(=O)OC(C)(C)C)[C@H](Cc1ccc2ccccc2c1)C(=O)N1CCN(S(C)(=O)=O)C[C@H]1Cc1ccccc1
16 | 190 | Nc1cccc(-c2ccc(CCN3CCC4(CC3)NC(=O)N(Cc3ccccc3)C4=O)cc2)n1

Row | melting point [°C] | SMILES
17 | 106 to 108 | CCOC(=O)C(=NNc1ccc(C)cc1C)C(C)=O
18 | 231 to 234 | O=C(Nc1ccc2c(c1)OCO2)c1ccc([N+](=O)[O-])cc1
19 | 142 to 143 | Nc1cc(-n2cc(C(=O)O)c(=O)c3cc([N+](=O)[O-])c(F)c(F)c32)c(F)cc1F
20 | 128 to 129 | Clc1ccc(N2CCN(Cc3coc4cccnc34)CC2)cc1
21 | 107 to 109 | CC(C)c1cccc(C(C)C)c1NC(=O)CN1CC2(CCCCC2)N(c2ccccc2)C1=O
22 | 218 to 219 | Nc1cc(C(=O)O)cc(S(N)(=O)=O)c1NCc1ccccc1
23 | 168 to 169 | Cc1cccc(Cl)c1CNC(=O)C(C)Br (stereo unspecified)
24 | 148 to 149 | CCOC(CNC(=S)Nc1ccnn1C)OCC
25 | 182 | O=C(/C=C/c1ccc(C(=O)O)cc1)NOC1CCCCO1 (stereo unspecified)
26 | 236 to 239 | CC(=O)N1CCC(=O)NCc2ccccc21
27 | 205 to 206 | CS(=O)c1ccnc(-c2nc(=O)c3ccccc3s2)c1 (stereo unspecified)
28 | 136 to 138 | CC(C)C(Cl)C(=O)Nc1c(C(=O)CC(=O)Nc2ccccn2)cccc1C(F)(F)F (stereo unspecified)
29 | 252 to 255 | CCCC1(CCC)c2ccccc2-c2cc(NC(=O)c3cc4oc5ccccc5c4cc3OC)c(O)cc21
30 | 170 to 172 | COCCOCc1nc2c(N)nc3ccccc3c2n1CCOc1ccccc1
31 | 72 to 73 | CCOC(=O)CCCCC(=O)c1c(C)cc(C)c(C)c1O
32 | 83 to 108 | CC(=O)SCCNC(=O)CCNC(=O)OCc1ccccc1

The remaining lines, values behind:

Row | SMILES | melting point [°C]
33 | COc1ccc(Cn2cnc3c(-c4ccco4)nc(S(C)(=O)=O)nc32)cc1 | 184 to 185
34 | CCc1c(CCC(=O)OC)ccc2c1OCO2 | 44 to 46
35 | CC(NCCO)c1ccccc1 (stereo unspecified) | 60
36 | Nc1nc(NCCO)nc(-c2cc(Cl)ccc2Cl)n1 | 198 to 199
37 | CCOC(=O)c1[nH]c(C)c(C)c1OCCCCCl | 58 to 60
38 | CCCN(CCC)C(=O)C(=NNc1ccccc1)C(C)=O | 79 to 80
39 | CCCCCNC(=O)c1cnc(N2CCN(C(=O)c3ccccc3C(F)(F)F)CC2)s1 | 92 to 94
40 | C=C1C[C@@H](C(=O)O)[C@H](C(=O)O)C1 (relative stereo) | 178 to 179
41 | CCCOc1cccc(-c2ccc3c(c2)C=C(C(=O)Nc2ccc(CN(C)C4CCOCC4)cc2)CCS3(=O)=O)c1 | 219 to 221
42 | O=Cc1c(Cl)ccc(Br)c1F | 92 to 93
43 | Cn1c2c(c3cc(OCc4ccccc4)ccc31)CC(C(N)=O)C2 (stereo unspecified) | 145 to 148
44 | COc1ccc(N2CCN(c3c(C)c(C)c4c(c3C)C(O)(c3ccc(F)nc3)C(C)(C)O4)CC2)cc1 (stereo unspecified) | 129 to 131
45 | CC(C)(OCCN1C(=O)c2ccccc2C1=O)OCCN1C(=O)c2ccccc2C1=O | 139 to 141
46 | N#Cc1cc2sccc2nc1I | 190 to 191
47 | N#Cc1cnc2n(c1=O)CCCCC2 | 125
48 | COc1cc(Nc2nccc(Nc3ccc(N4CCOCC4)cc3)n2)cc(OC)c1OC | 214
49 | CC(=O)NNC(=N)CCCCn1cnc(NC(N)=NCC(F)(F)F)n1 | 157 to 159
50 | CC(=O)NCCc1coc2ccc3c(c12)OCCO3 | 112
51 | CCOC(=O)c1cc(=O)c2cc(N3CCOCC3)c(=O)ccc2n1C | 170 to 172
52 | CC(C)c1nc(C(C)C)c(CSc2cccc(F)c2)c(-c2ccc(F)cc2)c1CO | 99 to 100
53 | CCOC(=O)c1cnoc1-c1ccc(Cl)c(Br)c1 | 109 to 110
54 | COCc1c(C)c(C(C)(C)C)cc(C(C)(C)C)c1O | 70
55 | CCCCc1nc(C(C)=O)c(C#N)n1Cc1ccc(-c2ccccc2C(=O)O)cc1 | > 55

Row | SMILES | melting point [°C]
56 | CC(C(=O)O)c1ccc(O)c(N)c1 (stereo unspecified) | 162
57 | CCCCCc1nc2c(N)nc3ccccc3c2s1 | 119 to 121
58 | O=C1CCCc2nc3ccccc3c(NCc3cccc(F)c3)c21 | 156 to 157
59 | Cc1cn(COCCOC(=O)c2ccccc2)c(=O)[nH]c1=O | 94 to 99
60 | CC(=O)Nc1ncc(C)cc1C(C)=O | 99 to 100
61 | FC(F)(F)c1c[nH]c(-c2cccc(OCC3CO3)c2)n1 (stereo unspecified) | 145 to 146
62 | CC(=O)N[C@H](CF)CCC(=O)O | 80 to 83
63 | N#Cc1cc(F)c(NC(=O)CC(=O)C(F)(F)F)cc1F | 176 to 181
64 | Cc1ccc(-c2cn(C)c(-c3ccc4c(c3)C(C)(C)c3ccccc3-4)n2)s1 | 188 to 191
65 | CCOC(=O)c1cc(=O)c2c(ccc3nc(C(=O)OC)cc(O)c32)o1 | 247 to 248
66 | CCCCCCCCCCCCCCCCOc1coc(C(=O)O)cc1=O | 126 to 130
67 | N#Cc1c(Cc2ccccc2)nn(C2CCCC2)c1N | 180 to 182
68 | CCCCC[C@@H](CNC(=O)Nc1c(N(C)C)ncnc1N(C)C)c1cccc2c1OCO2 | 151 to 152
69 | O=C1CCC(=O)C(Cc2ccccc2)N1 (stereo unspecified) | 140 to 141
70 | CCc1c(N2CCC(N)CC2)c(F)cc2c(=O)c(C(=O)O)cn(C3CC3)c12 | 248 to 249
71 | CN(C)C=C(C(=O)c1cccc2c1OC(F)(F)O2)C(=O)C1CC1 | 118 to 119
72 | COC(=O)C(CC#Cc1cc2c(O)c(C(=O)NCc3ccc(Cl)cc3)cnc2s1)C(=O)OC | 197 to 198
73 | CCN1CC(OCC2CC2)(C(F)(F)F)c2cc(F)ccc2NC1=O (stereo unspecified) | 156
74 | CC(=O)Oc1cnccc1CCCOc1cccnc1Oc1ccccc1 | 79 to 80
75 | COC(=O)CN(CC(COc1ccc(Cl)cc1)OC(C)=O)c1ccccc1 (stereo unspecified) | 82
76 | O=C1CCC(c2ccccc2)(c2ccccc2)[C@@H]2CN(C(=O)Cc3c(Cl)cccc3Cl)C[C@H]12 (racemic) | 201
77 | CCN1CCc2ccc(Nc3ncc(Cl)c(Nc4ccccc4C(=O)NC)n3)cc2CC1 | 201
78 | Cc1nc2ccccc2c2c1OC(C)CN2 (stereo unspecified) | 169 to 170

Row | SMILES | melting point [°C]
79 | CCOCc1nc2c(N)nc3ccccc3c2n1NCCCNC(=O)Nc1ccccc1 | 177 to 179
80 | CC(O)c1cc2ccccc2cn1 (stereo unspecified) | 104 to 106
81 | Cc1cccc(C2=C(c3ccc(S(C)(=O)=O)cc3)CN(C)C2=O)c1 | 163 to 165
82 | CN(c1ccccc1[N+](=O)[O-])S(C)(=O)=O | 144 to 145
83 | Cc1cc(-c2cc(C(F)(F)F)nn2-c2ccc(S(C)(=O)=O)cc2)ccc1-c1cocn1 | 148 to 150
84 | CC(Nc1nc(NNC(=O)CCCl)nc(Cl)c1-c1c(F)cccc1Cl)C(F)(F)F (stereo unspecified) | 152 to 156
85 | O=C(C1Cc2ccccc2N1c1ncccn1)N1CCCC1 (stereo unspecified) | 220 to 223
86 | CN(C)CCSc1ccc2ccc(N)nc2n1 | 174
87 | CC(SC1COC(c2ccc(C(=O)Nc3ccc(C#N)cc3)cc2F)OC1)C(O)(Cn1cncn1)c1ccc(F)cc1F (stereo unspecified) | 110
88 | COCCOCCOc1ccc(/C=C/C(=O)O)c(Oc2ncc(C(F)(F)F)cc2Cl)c1 | 134
89 | CCOC(=O)CN(C)C(=O)c1ccccc1C(=O)c1cc(C(C)(C)C)c(O)c(C(C)(C)C)c1 | 98 to 99
90 | COC(=O)C(C#N)c1nc(-c2c(F)cccc2F)cs1 (stereo unspecified) | 219 to 224
91 | Brc1nc2cncnc2n1Cc1ccccc1 | 119 to 121
92 | CC(=O)c1sccc1CN1C(=O)C(NC(=O)Nc2cccc(C)c2)N=C(c2ccccc2F)c2ccccc21 (racemic) | 222 to 223
93 | O=C(CCC(=O)Oc1ccc(C(=O)OCc2ccccc2)cc1)Oc1ccc(C(=O)OCc2ccccc2)cc1 | 106 to 107
94 | CC(=O)N[C@@H](CSC(c1ccccc1)(c1ccccc1)c1ccccc1)C(=O)NCCSC(=O)C(C)(C)C | 212 to 213
95 | C#CCS(=O)(=O)c1cc([N+](=O)[O-])ccc1Cl | 238 to 241
96 | CC(C)(C)c1cc(C=C2Sc3ccccc3N(CC(N)=O)C2=O)cc(C(C)(C)C)c1O | 137 to 144
97 | Cc1cc(C(C)(C)C)c(O)c(N)c1N | 129 to 136
98 | CCn1nc(O)nc1Cl | 108 to 110
99 | CCOC(=O)c1[nH]c2cc(-c3ccccc3)ccc2c1N | 181 to 183
100 | CCCCN1C(=O)NC(Cc2ccc(C#N)cc2)C1=O (stereo unspecified) | 136
101 | CS(=O)(=O)c1ccc(-n2nc(C(=O)O)cc2-c2ccc(-c3ccco3)cc2)cc1F | 172 to 173

Reference: a melting point compilation (Tetko et al.; mined from patent text by program, amines drawn as free bases though some values may be those of a salt)
